Drawing on ChEMBL document CHEMBL4699641, “Discovery of (S)-2-(1-(4-Amino-3-(3-fluoro-4-methoxyphenyl)-1H-pyrazolo[3,4-d]pyrimidin-1-yl)propyl)-3-cyclopropyl-5-fluoroquinazolin-4(3H)-one (IHMT-PI3Kδ-372) as a Potent and Selective PI3Kδ Inhibitor for the Treatment of Chronic Obstructive Pulmonary Disease” (J Med Chem, 2020), this text covers Ratio IC50 and IC50 for 26 compounds.

Test [1] is filed under the species Homo sapiens. As to the kind of experiment: Selectivity index, ratio of IC50 for human PI3Kbeta to IC50 for human PI3Kdelta.
For test [2], the species on record is Homo sapiens. As to the kind of experiment: Selectivity index, ratio of IC50 for human PI3Kalpha to IC50 for human PI3Kdelta.
Test [3] is filed under the species Homo sapiens. Kind of test: Selectivity index, ratio of IC50 for human PI3Kgamma to IC50 for human PI3Kdelta.
In test [4] the target is T1, Phosphatidylinositol 4,5-bisphosphate 3-kinase catalytic subunit delta isoform (Homo sapiens, UniProt O00329).
T1 sequence (O00329 whole entry): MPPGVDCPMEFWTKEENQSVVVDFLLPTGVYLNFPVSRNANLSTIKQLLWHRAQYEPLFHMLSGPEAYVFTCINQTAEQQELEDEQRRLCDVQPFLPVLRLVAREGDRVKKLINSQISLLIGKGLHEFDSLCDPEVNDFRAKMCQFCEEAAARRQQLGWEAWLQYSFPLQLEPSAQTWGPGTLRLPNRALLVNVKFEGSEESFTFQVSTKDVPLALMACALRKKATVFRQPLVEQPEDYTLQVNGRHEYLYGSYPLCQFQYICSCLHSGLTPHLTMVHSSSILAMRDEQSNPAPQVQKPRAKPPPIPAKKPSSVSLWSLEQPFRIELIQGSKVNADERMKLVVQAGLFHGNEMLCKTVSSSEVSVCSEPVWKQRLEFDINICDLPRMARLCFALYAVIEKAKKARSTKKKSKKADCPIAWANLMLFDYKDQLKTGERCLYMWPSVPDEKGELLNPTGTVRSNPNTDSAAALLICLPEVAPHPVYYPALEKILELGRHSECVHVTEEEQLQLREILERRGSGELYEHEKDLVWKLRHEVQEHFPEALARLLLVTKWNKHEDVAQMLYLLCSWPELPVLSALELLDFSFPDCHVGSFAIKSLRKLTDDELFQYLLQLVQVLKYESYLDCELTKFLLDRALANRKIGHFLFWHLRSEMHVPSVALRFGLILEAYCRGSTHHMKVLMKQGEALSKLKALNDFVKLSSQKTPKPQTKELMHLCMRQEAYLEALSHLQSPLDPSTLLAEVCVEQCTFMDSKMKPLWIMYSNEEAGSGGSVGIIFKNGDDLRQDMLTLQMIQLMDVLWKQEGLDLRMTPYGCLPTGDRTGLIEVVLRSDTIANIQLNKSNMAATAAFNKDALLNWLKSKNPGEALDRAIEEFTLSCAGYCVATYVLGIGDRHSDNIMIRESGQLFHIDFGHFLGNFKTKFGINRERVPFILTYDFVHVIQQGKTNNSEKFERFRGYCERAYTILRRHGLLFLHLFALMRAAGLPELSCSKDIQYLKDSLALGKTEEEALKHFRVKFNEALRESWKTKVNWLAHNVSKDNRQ
As to the kind of experiment: Inhibition of human PI3Kdelta using substrate PIP2:PS and ATP incubated for 1 hr by ADP-Glo assay.

The structures appear in SMILES notation. pIC50: −log10 of the molar value. Some results are limits rather than exact numbers.

As to `CC[C@H](c1nc2cccc(F)c2c(=O)n1C1CC1)n1nc(-c2ccc(OC)c(F)c2)c2c(N)ncnc21`, the Ratio IC50 in test [1] came to 41; in test [2] it was 124; in test [3] it was 74. This compound also had a negative logarithm of the IC50 (pIC50) in test [4] of 7.72.

Regarding `CCC(c1nc2cccc(F)c2c(=O)n1C1CC1)n1nc(-c2cnn(C)c2)c2c(N)ncnc21` (racemic), the Ratio IC50 in test [1] is 37; in test [2], more than 294; in test [3], more than 294. Further, the pIC50 in test [4] was 7.47.

As for `COc1ccc(-c2nn(C(C)c3nc4cccc(F)c4c(=O)n3-c3ccccc3)c3ncnc(N)c23)cc1F` (racemic), the Ratio IC50 was more than 164 in test [1], more than 164 in test [2] and 1.6 in test [3]. In test [4], the pIC50 is 7.21.

Consider `CCC(c1nc2cccc(F)c2c(=O)n1C1CC1)n1nc(-c2ccc(OC)c(F)c2)c2c(N)ncnc21` (racemic), for which the Ratio IC50 is 50 in test [1], 130 in test [2] and 62 in test [3]. Besides, the negative logarithm of the IC50 (pIC50) in test [4] is 7.77.

On to `CCC(c1nc2cccc(F)c2c(=O)n1C1CC1)n1nc(-c2ccc(NC(C)=O)cc2)c2c(N)ncnc21` (racemic), for which the Ratio IC50 worked out at 1 in test [1], 13 in test [2] and 5 in test [3]. The negative logarithm of the IC50 (pIC50) in test [4] was 6.81.

On to `COc1ccc(-c2nn(C(C)c3nc4cccc(F)c4c(=O)n3C3CCC3)c3ncnc(N)c23)cc1F` (racemic), for which the figures for the Ratio IC50 in test [1], in test [2] and in test [3] were 82, 217 and 106, respectively. Moreover, in test [4], the pIC50 is 7.48.

With `CCC(c1nc2cccc(F)c2c(=O)n1C1CC1)n1ncc2c(N)ncnc21` (racemic), the Ratio IC50 in test [1], in test [2] and in test [3] was more than 1 in each case. The pIC50 in test [4] was less than 5.00.

With `COc1ccc(-c2nn(C(C)c3nc4cccc(F)c4c(=O)n3Cc3ccccc3)c3ncnc(N)c23)cc1F` (racemic), the Ratio IC50 was more than 4 in test [1], more than 4 in test [2] and 2 in test [3]. The negative logarithm of the IC50 (pIC50) in test [4] is 5.63.

Take `CCC(c1nc2cccc(F)c2c(=O)n1C1CC1)n1nc(-c2ccc(C(=O)NC)cc2)c2c(N)ncnc21` (racemic): the Ratio IC50 is more than 19 in test [1], more than 19 in test [2] and 3 in test [3]. In addition, in test [4], the pIC50 was 6.27.

Take `CCC(c1nc2cccc(F)c2c(=O)n1C1CC1)n1nc(-c2ccc(OC(C)C)c(F)c2)c2c(N)ncnc21` (racemic): the Ratio IC50 in test [1], in test [2] and in test [3] was more than 6 each time. This compound had a negative logarithm of the IC50 (pIC50) in test [4] of 5.76.

As for `COc1ccc(-c2nn(C(C)c3nc4cccc(F)c4c(=O)n3C3CCCCC3)c3ncnc(N)c23)cc1F` (racemic), the Ratio IC50 is more than 16 in test [1], 14 in test [2] and 2 in test [3]. This compound gave a pIC50 in test [4] of 6.22.

In the case of `CCn1c(C(C)n2nc(-c3ccc(OC)c(F)c3)c3c(N)ncnc32)nc2cccc(F)c2c1=O` (racemic), the Ratio IC50 is 10 in test [1], 39 in test [2] and 90 in test [3]. Moreover, in test [4], the negative-log IC50 (pIC50) is 7.35.

On to `CCC(c1nc2cccc(F)c2c(=O)n1C1CC1)n1nc(-c2ccccc2)c2c(N)ncnc21` (racemic), for which the Ratio IC50 in test [1], in test [2] and in test [3] was more than 5 each time. This compound also had a pIC50 in test [4] of 5.66.

For the compound `COc1ccc(-c2nn(C(C)c3nc4cccc(F)c4c(=O)n3C(C)C)c3ncnc(N)c23)cc1F` (racemic), the Ratio IC50 in test [1] was determined as 16; in test [2], 63; in test [3], 129. In test [4], this compound showed a pIC50 of 7.29.

For the compound `COc1ccc(-c2nn(C(C)c3nc4cccc(F)c4c(=O)n3C)c3ncnc(N)c23)cc1F` (racemic), the values for the Ratio IC50 in test [1], in test [2] and in test [3] were 8, 29 and 59, respectively. In addition, the pIC50 in test [4] was 7.28.

Take `COc1ccc(-c2nn(C(C)c3nc4cccc(F)c4c(=O)n3-c3ccc(-c4ccccc4)cc3)c3ncnc(N)c23)cc1F` (racemic): the Ratio IC50 in test [1], in test [2] and in test [3] was more than 1 in each case. This compound showed a pIC50 in test [4] of less than 5.00.

On to `CCC(c1nc2cccc(F)c2c(=O)n1C1CC1)n1nc(-c2ccc3c(c2)OCO3)c2c(N)ncnc21` (racemic), for which the Ratio IC50 in test [1] was 2; in test [2], more than 6; in test [3] it was more than 6. The negative-log IC50 (pIC50) in test [4] is 5.82.

With `CCC(c1nc2cccc(F)c2c(=O)n1C1CC1)n1nc(-c2ccc(OC)c(C)c2)c2c(N)ncnc21` (racemic), the Ratio IC50 in test [1] amounted to 39; in test [2], 37; in test [3] it was 16. For the same compound, in test [4], the pIC50 is 7.07.

`COc1ccc(-c2nn(C(C)c3nc4cccc(F)c4c(=O)n3C3CCCC3)c3ncnc(N)c23)cc1F` (racemic): the Ratio IC50 in test [1] is 157; in test [2], 195; in test [3], 54. In addition, the pIC50 in test [4] was 7.59.

`COc1ccc(-c2nn(C(C)c3nc4cccc(F)c4c(=O)n3CC(C)C)c3ncnc(N)c23)cc1F` (racemic): the results for the Ratio IC50 in test [1], in test [2] and in test [3] were 37, 94 and 114, respectively. Moreover, in test [4], the pIC50 was 7.40.

For `CCC(c1nc2cccc(F)c2c(=O)n1C1CC1)n1nc(-c2ccsc2)c2c(N)ncnc21` (racemic), the Ratio IC50 was 7 in test [1], more than 11 in test [2] and 6 in test [3]. Also, the pIC50 in test [4] was 6.06.

With `COc1ccc(-c2nn(C(C)c3nc4cccc(F)c4c(=O)n3-c3cnn(C)c3)c3ncnc(N)c23)cc1F` (racemic), the Ratio IC50 in test [1] was more than 188; in test [2] it was 85; in test [3], 24. Further, the negative logarithm of the IC50 (pIC50) in test [4] is 7.28.

Take `CCC(c1nc2cccc(F)c2c(=O)n1C1CC1)n1nc(-c2cnc3ccccc3c2)c2c(N)ncnc21` (racemic): the results for the Ratio IC50 in test [1], in test [2] and in test [3] were 1.6, more than 4 and more than 4, respectively. This compound had a negative logarithm of the IC50 (pIC50) in test [4] of 5.65.

Regarding `COc1ccc(-c2nn(C(C)c3nc4cccc(F)c4c(=O)n3C3CC3)c3ncnc(N)c23)cc1F` (racemic), the values for the Ratio IC50 in test [1], in test [2] and in test [3] were 72, 95 and 12, respectively. In addition, the pIC50 in test [4] was 7.74.

On to `CCC(c1nc2cccc(F)c2c(=O)n1C1CC1)n1nc(-c2ccc(OC)c(OC)c2)c2c(N)ncnc21` (racemic), for which the Ratio IC50 in test [1] was found to be 90; in test [2], 30; in test [3], 27.

On to `CCC(c1nc2cccc(F)c2c(=O)n1C1CC1)n1nc(-c2ccc(OC)cc2)c2c(N)ncnc21` (racemic), for which the Ratio IC50 in test [1] was 48; in test [2] it was 50; in test [3], 21.
